From patent US10800792B2, “Inhibitors of Bruton's tyrosine kinase and method of their use” (JANSSEN PHARMACEUTICA NV, priority 2015, dated 2020)

The molecules below were run against unphosphorylated-BTK kinase domain (UP-BTK), GST-tagged human BTK (389-659aa) (Homo sapiens (Human), UniProt Q06187) (assay: BTK kinase Lanthascreen binding assay). Settings: Lanthascreen tracer competition, 60 minutes incubation; pIC50 = negative log of the IC50 in molar.
Procedure, shortened: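 Compound binding to the unphosphorylated kinase domain was monitored by displacement of a fluorescently labelled tracer in a Lanthascreen format. Potency is given as pIC50, the negative log of the molar IC50.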

unphosphorylated-BTK kinase domain (UP-BTK), GST-tagged human BTK (389-659aa), sequence (Q06187 389-659): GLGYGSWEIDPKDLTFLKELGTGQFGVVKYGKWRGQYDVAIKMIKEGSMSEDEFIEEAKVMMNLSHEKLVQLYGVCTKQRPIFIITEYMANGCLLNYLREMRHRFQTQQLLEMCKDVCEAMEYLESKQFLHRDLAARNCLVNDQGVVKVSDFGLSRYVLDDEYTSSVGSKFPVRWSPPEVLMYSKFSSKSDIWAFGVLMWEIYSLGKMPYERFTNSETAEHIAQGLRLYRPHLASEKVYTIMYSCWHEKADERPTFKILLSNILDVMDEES

Row | Compound | BTK_I_binding pIC50
1 | C=CC(=O)N1CCC[C@@H](NC(=O)c2sc3nccc4c3c2NC(=O)N4c2cc(-c3ccccc3)ncc2C)C1 [Example 695, (R)—N-(1-Acryloylpiperidin-3-yl)-5-(5-methyl-2-phenylpyridin-4-yl)-4-oxo-4,5-dihydro-3H-1-thia-3,5,8-triazaacenaphthylene-2-carboxamide] | 7.3
2 | Cc1cc(OC2CCCC2)ncc1N1C(=O)Nc2c(C(=O)N[C@@H]3CCNC3)sc3nccc1c23 (single isomer, unassigned) [Example 797, (R)-5-(*S)-(6-(Cyclopentyloxy)-4-methylpyridin-3-yl)-4-oxo-N-(pyrrolidin-3-yl)-4,5-dihydro-3H-1-thia-3,5,8-triazaacenaphthylene-2-carboxamide] | 6.3
3 | Cc1cc(Oc2ccccc2)ccc1N1C(=O)Nc2c(C(=O)N[C@@H]3CCCN(C(=O)/C=C/CN4CCCCC4)C3)sc3nccc1c23 [Example 900, (R,E)-5-(2-Methyl-4-phenoxyphenyl)-4-oxo-N-(1-(4-(piperidin-1-yl)but-2-enoyl)piperidin-3-yl)-4,5-dihydro-3H-1-thia-3,5,8-triazaacenaphthylene-2-carboxamide] | 6.8
4 | C=CC(=O)N1CCC[C@@H](NC(=O)c2sc3nccc4c3c2NC(=O)N4c2ccc(OC3CCC3)nc2C)C1 (single isomer, unassigned) [Example 682, (R)—N-(1-Acryloylpiperidin-3-yl)-5-(*S)-(6-cyclobutoxy-2-methylpyridin-3-yl)-4-oxo-4,5-dihydro-3H-1-thia-3,5,8-triazaacenaphthylene-2-carboxamide] | 7.3
5 | Cc1cc(Oc2ccccc2)ccc1N1C(=O)Nc2c(C(=O)NC3CCCNC3)sc3nccc1c23 (stereo not shown) [Example 889, 5-(2-methyl-4-phenoxyphenyl)-4-oxo-N-(piperidin-3-yl)-4,5-dihydro-3H-1-thia-3,5,8-triazaacenaphthylene-2-carboxamide] | 7.0

Same assay, conditions: pIC50 = negative log of the IC50 in molar; 60 minutes incubation, 50 nM Tracer 236

Row | Compound | BTK_I_binding pIC50
6 | C=CC(=O)N1CCC[C@@H](NC(=O)c2sc3nccc4c3c2NC(=O)N4c2ccc(OC3CC3)cc2C)C1 [Example 51, (R)—N-(1-Acryloylpiperidin-3-yl)-5-(4-cyclopropoxy-2-methylphenyl)-4-oxo-4,5-dihydro-3H-1-thia-3,5,8-triazaacenaphthylene-2-carboxamide] | 7.5
7 | Cc1cc(Oc2ccccc2)ccc1N1C(=O)Nc2c(C(=O)NC3CN(C(C)C)C3)sc3nccc1c23 [Example 273, N-(1-Isopropylazetidin-3-yl)-5-(2-methyl-4-phenoxyphenyl)-4-oxo-4,5-dihydro-3H-1-thia-3,5,8-triazaacenaphthylene-2-carboxamide] | 6.3
8 | CO[C@@H]1CNC[C@H](NC(=O)c2sc3nccc4c3c2NC(=O)N4c2ccc(Oc3ccccc3)cc2C)C1 [Example 268, N-((3R,5S)-5-Methoxypiperidin-3-yl)-5-(2-methyl-4-phenoxyphenyl)-4-oxo-4,5-dihydro-3H-1-thia-3,5,8-triazaacenaphthylene-2-carboxamide] | 6.3
9 | CNCC(=O)N1CCC[C@@H](NC(=O)c2sc3nccc4c3c2NC(=O)N4c2ccc(Oc3ccccc3)cc2C)C1 (single isomer, unassigned) [Example 253, (R)-5-(*R)-(2-Methyl-4-phenoxyphenyl)-N-(1-(2-(methylamino)acetyl)piperidin-3-yl)-4-oxo-4,5-dihydro-3H-1-thia-3,5,8-triazaacenaphthylene-2-carboxamide] | 6.2
10 | Cc1cc(Oc2ccccc2)ccc1N1C(=O)Nc2c(C(=O)N[C@@H]3CCCN(C(=O)[C@H]4CCNC4)C3)sc3nccc1c23 [Example 131, 5-(2-Methyl-4-phenoxyphenyl)-4-oxo-N—((R)-1-((S)-pyrrolidine-3-carbonyl)piperidin-3-yl)-4,5-dihydro-3H-1-thia-3,5,8-triazaacenaphthylene-2-carboxamide] | 7.5
11 | C=CC(=O)N1CC(O)[C@@H](NC(=O)c2sc3nccc4c3c2NC(=O)N4c2ccc(Oc3ccccc3)cc2C)C1 (stereo in doubt) [Example 50, N-((3S,4S)-1-Acryloyl-4-hydroxypyrrolidin-3-yl)-5-(2-methyl-4-phenoxyphenyl)-4-oxo-4,5-dihydro-3H-1-thia-3,5,8-triazaacenaphthylene-2-carboxamide] | 7.5
12 | Cc1cc(Oc2ccccc2)ccc1N1C(=O)Nc2c(C(=O)N[C@@H]3CCOC3)sc3nccc1c23 (single isomer, unassigned) [Example 80, (R)-5-(*S)-(2-Methyl-4-phenoxyphenyl)-4-oxo-N-(tetrahydrofuran-3-yl)-4,5-dihydro-3H-1-thia-3,5,8-triazaacenaphthylene-2-carboxamide] | 7.8
13 | C/C=C/C(=O)N1CCC[C@@H](NC(=O)c2sc3nccc4c3c2NC(=O)N4c2ccc(Oc3ccccc3)cc2C)C1 [Example 105, (R,E)-N-(1-(But-2-enoyl)piperidin-3-yl)-5-(2-methyl-4-phenoxyphenyl)-4-oxo-4,5-dihydro-3H-1-thia-3,5,8-triazaacenaphthylene-2-carboxamide] | 6.9
14 | C#CC(=O)N1CCC[C@@H](NC(=O)c2sc3nccc4c3c2NC(=O)N4c2ccc(Oc3ccccc3)cc2C)C1 (single isomer, unassigned) [Example 46, (R)-5-(*S)-(2-methyl-4-phenoxyphenyl)-4-oxo-N-(1-propioloylpiperidin-3-yl)-4,5-dihydro-3H-1-thia-3,5,8-triazaacenaphthylene-2-carboxamide] | 7.9

Same assay, conditions: pIC50 = negative log of the IC50 in molar; 60 minutes incubation, 50 nM Tracer 236; read-out: BTK_I_binding pIC50 (converted)

Row | Compound | IC50 [nM]
15 | C=C(Cl)C(=O)N1CCC[C@@H](NC(=O)c2sc3nccc4c3c2NC(=O)N4c2ccc(Oc3ccccc3)cc2C)C1 [Example 26, (R)—N-(1-(2-Chloroacryloyl)piperidin-3-yl)-5-(2-methyl-4-phenoxyphenyl)-4-oxo-4,5-dihydro-3H-1-thia-3,5,8-triazaacenaphthylene-2-carboxamide] | 50.1

Same assay, conditions: unphosphorylated-BTK kinase domain, 50 nM Tracer 236, 60 minutes; pIC50 = negative log of the IC50 in molar

Row | Compound | BTK_I_binding pIC50
16 | Cc1cc(Oc2ccccc2)ccc1N1C(=O)Nc2c(C(=O)N[C@@H]3CCCN(C(=O)/C=C/CN(C)C)C3)sc3nccc1c23 (single isomer, unassigned) [Example 488, (R,E)-N-(1-(4-(Dimethylamino)but-2-enoyl)piperidin-3-yl)-5-(*S)-(2-methyl-4-phenoxyphenyl)-4-oxo-4,5-dihydro-3H-1-thia-3,5,8-triazaacenaphthylene-2-carboxamide] | 7.2
17 | C=CC(=O)N1CCC[C@@H](NC(=O)c2sc3nccc4c3c2NC(=O)N4c2ccc(OC)c(C(F)(F)F)c2)C1 [Example 455, (R)—N-(1-Acryloylpiperidin-3-yl)-5-(4-methoxy-3-(trifluoromethyl)phenyl)-4-oxo-4,5-dihydro-3H-1-thia-3,5,8-triazaacenaphthylene-2-carboxamide] | <5
18 | O=C(N[C@@H]1CCCNC1)c1sc2nccc3c2c1NC(=O)N3c1cccc(Cl)c1 [Example 336, (R)-5-(3-Chlorophenyl)-4-oxo-N-(piperidin-3-yl)-4,5-dihydro-3H-1-thia-3,5,8-triazaacenaphthylene-2-carboxamide] | 5.4
19 | CCS(=O)(=O)N1CCC[C@@H](NC(=O)c2sc3nccc4c3c2NC(=O)N4c2ccc(Oc3ccccc3)cc2C)C1 (single isomer, unassigned) [Example 539, (R)—N-(1-(Ethylsulfonyl)piperidin-3-yl)-5-(*S)-(2-methyl-4-phenoxyphenyl)-4-oxo-4,5-dihydro-3H-1-thia-3,5,8-triazaacenaphthylene-2-carboxamide] | 7.2
20 | O=C(NCC1CCCO1)c1sc2nccc3c2c1NC(=O)N3c1ccc(Oc2ccccc2)cc1 (stereo not shown) [Example 462, 4-Oxo-5-(4-phenoxyphenyl)-N-((tetrahydrofuran-2-yl)methyl)-4,5-dihydro-3H-1-thia-3,5,8-triazaacenaphthylene-2-carboxamide] | 6.4
21 | C=CC(=O)N1CC[C@@H](NC(=O)c2sc3nccc4c3c2NC(=O)N4c2ccnc(-c3ccccc3)c2)C1 [Example 567, (R)—N-(1-Acryloylpyrrolidin-3-yl)-4-oxo-5-(2-phenylpyridin-4-yl)-4,5-dihydro-3H-1-thia-3,5,8-triazaacenaphthylene-2-carboxamide] | 7.4
22 | COc1ccc(N2C(=O)Nc3c(C(=O)N[C@@H]4CCCNC4)sc4nccc2c34)cc1C(F)(F)F [Example 459, (R)-5-(4-Methoxy-3-(trifluoromethyl)phenyl)-4-oxo-N-(piperidin-3-yl)-4,5-dihydro-3H-1-thia-3,5,8-triazaacenaphthylene-2-carboxamide] | <5
23 | C=CC(=O)N1CC[C@@H](N(C)C(=O)c2sc3nccc4c3c2NC(=O)N4c2ccc(Oc3ccccc3)cc2C)C1 (single isomer, unassigned) [Example 441, (R)—N-(1-Acryloylpyrrolidin-3-yl)-N-methyl-5-(*S)-(2-methyl-4-phenoxyphenyl)-4-oxo-4,5-dihydro-3H-1-thia-3,5,8-triazaacenaphthylene-2-carboxamide] | 5.9

Same assay, conditions: unphosphorylated-BTK kinase domain, 50 nM Tracer 236, 60 minutes; pIC50 = negative log of the IC50 in molar; read-out: BTK_I_binding pIC50 (converted)

Row | Compound | IC50 [nM]
24 | O=C(N[C@H]1CNC[C@H](O)C1)c1sc2nccc3c2c1NC(=O)N3c1ccc(Oc2ccccc2)cc1 [Example 586, N-((3R,5R)-5-Hydroxypiperidin-3-yl)-4-oxo-5-(4-phenoxyphenyl)-4,5-dihydro-3H-1-thia-3,5,8-triazaacenaphthylene-2-carboxamide] | 251

Same assay, conditions: unphosphorylated-BTK kinase domain, 60 minutes incubation, 50 nM Tracer 236; pIC50 = negative log of the IC50 in molar

Row | Compound | BTK_I_binding pIC50
25 | O=C(N[C@@H]1CCCNC1)c1sc2nccc3c2c1NC(=O)N3c1ccc(Cl)cc1 [Example 951, (R)-5-(4-Chlorophenyl)-4-oxo-N-(piperidin-3-yl)-4,5-dihydro-3H-1-thia-3,5,8-triazaacenaphthylene-2-carboxamide] | 5.1
